Results reported in the supplement of paper PMC11208160.

Assay: recombinant UMI read abundance after kanamycin selection (control-corrected) (log10(CPM+1)); higher = more efficient recombination; extreme values may be limits of the assay; sequences stand for … in AGTGCAGAGAAAATCGGCCAGTTTTCTCTGCCTGCAGTCCGCATGCCGTGGGACCCCTTGGGTTCTAACCTGTTGCCTAGATTTATGCAGCGGACTGCCTTTCTCCCAAAGTGATAAACCGG…AGGTTGGTTTCACT; site = the 11-nt donor
Procedure, shortened: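 For the IS621 bridge recombinase, a pooled Escherichia coli screen tested donor and donor-binding-loop pairs. Cells received the pair library together with a target plasmid encoding a fixed target and T7-inducible recombinase, then went onto IPTG (0.07 mM) plus kanamycin or unselected plates in duplicate. After PCR across the donor–target junction and sequencing, recombinant UMI counts were normalized to CPM, averaged, and scaled by control-derived factors. Each value is given as log10(CPM+1).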
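Note: IS621 bridge recombinase in Escherichia coli cells against a fixed T5 target plasmid.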

Sequence	recombinant UMI read abundance (log10)
GTGCATGCATGGACCGGTTTTCCCGGTAATCCGTATTTGGT (site GTGCATGCTTC)	0.0184
GTGCATGCATGGACCGGTTTTCCCGGTAATCCGTATTTGGT (site GTGCATTCTAC)	0
GTGCATGCATGGACCGGTTTTCCCGGTAATCCGTATTTGGT (site GTGCCTGCTAC)	1.15
GTGCATGCATGGACCGGTTTTCCCGGTAATCCGTATTTGGT (site GTGCGTGCTAC)	0.276
GTGCATGCATGGACCGGTTTTCCCGGTAATCCGTATTTGGT (site GTGCTTGCTAC)	0.00578
GTGCATGCATGGACCGGTTTTCCCGGTAATCCGTATTTGGT (site GTGGATGCTAC)	0.00465
GTGCATGCATGGACCGGTTTTCCCGGTAATCCGTATTTGGT (site GTGTATGCTAC)	0.469
GTGCATGCATGGACCGGTTTTCCCGGTAATCCGTATTTGGT (site GTTCATGCTAC)	0.448
GTGCATGCATGGACCGGTTTTCCCGGTAATCCGTATTTGGT (site TTGCATGCTAC)	0.412
GTGCGATCATGGACCGGTTTTCCCGGTAATCCGTATTTGAC (site GTGCGATCTGT)	1.92
GTGCGGGCATGGACCGGTTTTCCCGGTAATCCGTATTTGGT (site GTGCGGGCTAC)	0.486
GTGCTACCATGGACCGGTTTTCCCGGTAATCCGTATTTGCT (site ATGCTACCTAG)	0
GTGCTACCATGGACCGGTTTTCCCGGTAATCCGTATTTGCT (site CTGCTACCTAG)	0
GTGCTACCATGGACCGGTTTTCCCGGTAATCCGTATTTGCT (site GTGCTACCTAG)	0.0199
GTGCTACCATGGACCGGTTTTCCCGGTAATCCGTATTTGCT (site TTGCTACCTAG)	0
GTGCTCTCATGGACCGGTTTTCCCGGTAATCCGTATTTGTG (site GTGCTCTCTCA)	1.28
GTGCTGCCATGGACCGGTTTTCCCGGTAATCCGTATTTGTG (site GTGCTGCCTCA)	0.251
GTGCTGGCATGGACCGGTTTTCCCGGTAATCCGTATTTGGT (site GTGCTGGCTAC)	0.476
GTGCTTGCATGGACCGGTTTTCCCGGTAATCCGTATTTGGT (site GTGCATGCTAC)	0.0165
GTGCTTGCATGGACCGGTTTTCCCGGTAATCCGTATTTGGT (site GTGCCTGCTAC)	0.269
GTGCTTGCATGGACCGGTTTTCCCGGTAATCCGTATTTGGT (site GTGCGTGCTAC)	0.0221
GTGCTTGCATGGACCGGTTTTCCCGGTAATCCGTATTTGGT (site GTGCTTGCTAC)	1.07
GTGGAAACATGGACCGGTTTTCCCGGTAATCCGTATTTGCA (site ATGGAAACTTG)	1.42
GTGGAAACATGGACCGGTTTTCCCGGTAATCCGTATTTGCA (site CTGGAAACTTG)	1.56
GTGGAAACATGGACCGGTTTTCCCGGTAATCCGTATTTGCA (site GTGGAAACTTG)	2.37

Sequence	recombinant UMI read abundance (log10)
GTGGAAACATGGACCGGTTTTCCCGGTAATCCGTATTTGCA (site TTGGAAACTTG)	2.14
GTGGAAGCATGGACCGGTTTTCCCGGTAATCCGTATTTGTG (site GTGGAAGCTCA)	2.35
GTGGAAGCATGGACCGGTTTTCCCGGTAATCCGTATTTGTG (site GTGGACGCTCA)	0.582
GTGGAAGCATGGACCGGTTTTCCCGGTAATCCGTATTTGTG (site GTGGAGGCTCA)	1.53
GTGGAAGCATGGACCGGTTTTCCCGGTAATCCGTATTTGTG (site GTGGATGCTCA)	0.605
GTGGAGCCATGGACCGGTTTTCCCGGTAATCCGTATTTGTT (site GTGGAGCCTAA)	0.012
GTGGAGGCATGGACCGGTTTTCCCGGTAATCCGTATTTGTT (site GTGGAGGCTAA)	1.58
GTGGAGGCATGGACCGGTTTTCCCGGTAATCCGTATTTGTT (site GTGGAGGCTCA)	0.524
GTGGAGGCATGGACCGGTTTTCCCGGTAATCCGTATTTGTT (site GTGGAGGCTGA)	2.66
GTGGAGGCATGGACCGGTTTTCCCGGTAATCCGTATTTGTT (site GTGGAGGCTTA)	0.938
GTGGATGCATGGACCGGTTTTCCCGGTAATCCGTATTTGGT (site GTGAATGCTAC)	2.1
GTGGATGCATGGACCGGTTTTCCCGGTAATCCGTATTTGGT (site GTGCATGCTAC)	0.00775
GTGGATGCATGGACCGGTTTTCCCGGTAATCCGTATTTGGT (site GTGGATGCTAC)	2.2
GTGGATGCATGGACCGGTTTTCCCGGTAATCCGTATTTGGT (site GTGTATGCTAC)	1.03
GTGGCGCCATGGACCGGTTTTCCCGGTAATCCGTATTTGTA (site GTGGCGCCTTA)	0.00916
GTGGCTCCATGGACCGGTTTTCCCGGTAATCCGTATTTGTT (site GTGGCTCCTAA)	0.00981
GTGGGTACATGGACCGGTTTTCCCGGTAATCCGTATTTGAC (site GTAGGTACTGT)	2.16
GTGGGTACATGGACCGGTTTTCCCGGTAATCCGTATTTGAC (site GTCGGTACTGT)	0
GTGGGTACATGGACCGGTTTTCCCGGTAATCCGTATTTGAC (site GTGGGTACTGT)	2.91
GTGGGTACATGGACCGGTTTTCCCGGTAATCCGTATTTGAC (site GTTGGTACTGT)	2.72
GTGGGTACATGGACCGGTTTTCCCGGTAATCCGTATTTGTT (site GTGGGTACTAA)	1.15
GTGGTCGCATGGACCGGTTTTCCCGGTAATCCGTATTTGGC (site GTGGTCGCTGC)	2.91
GTGGTGGCATGGACCGGTTTTCCCGGTAATCCGTATTTGTG (site GTGGAGGCTCA)	0.789
GTGGTGGCATGGACCGGTTTTCCCGGTAATCCGTATTTGTG (site GTGGCGGCTCA)	0.0357
GTGGTGGCATGGACCGGTTTTCCCGGTAATCCGTATTTGTG (site GTGGGGGCTCA)	0.0222

Sequence	recombinant UMI read abundance (log10)
GTGGTGGCATGGACCGGTTTTCCCGGTAATCCGTATTTGTG (site GTGGTGGCTCA)	0.992
GTGTCCGCATGGACCGGTTTTCCCGGTAATCCGTATTTGGC (site GTGTCCGCTGC)	2.26
GTGTGGGCATGGACCGGTTTTCCCGGTAATCCGTATTTGAG (site GTGTGGGCTCT)	1.21
GTGTTACCATGGACCGGTTTTCCCGGTAATCCGTATTTGGT (site GTGTTACCTAC)	0
GTGTTATCATGGACCGGTTTTCCCGGTAATCCGTATTTGCT (site GTGTTATCTAG)	2.87
GTTACACCATGGACCGGTTTTCCCGGTAATCCGTATTTGGC (site GTTACACCTGC)	0
GTTAGAACATGGACCGGTTTTCCCGGTAATCCGTATTTGAC (site GTTAGAACTGA)	0.0146
GTTAGAACATGGACCGGTTTTCCCGGTAATCCGTATTTGAC (site GTTAGAACTGC)	0.0153
GTTAGAACATGGACCGGTTTTCCCGGTAATCCGTATTTGAC (site GTTAGAACTGG)	0
GTTAGAACATGGACCGGTTTTCCCGGTAATCCGTATTTGAC (site GTTAGAACTGT)	1.89
GTTAGAACATGGACCGGTTTTCCCGGTAATCCGTATTTGGA (site GTTAGAACTAC)	0.00435
GTTAGAACATGGACCGGTTTTCCCGGTAATCCGTATTTGGA (site GTTAGAACTCC)	0.0329
GTTAGAACATGGACCGGTTTTCCCGGTAATCCGTATTTGGA (site GTTAGAACTGC)	0
GTTAGAACATGGACCGGTTTTCCCGGTAATCCGTATTTGGA (site GTTAGAACTTC)	0.178
GTTAGAGCATGGACCGGTTTTCCCGGTAATCCGTATTTGTG (site GTTAGAGCTCA)	1.74
GTTAGGACATGGACCGGTTTTCCCGGTAATCCGTATTTGAG (site GTTAGGACTCT)	1.83
GTTATCCCATGGACCGGTTTTCCCGGTAATCCGTATTTGGC (site GTTATCCCTGC)	0
GTTCAAGCATGGACCGGTTTTCCCGGTAATCCGTATTTGCA (site GTTCAAGCTTG)	1.62
GTTCAAGCATGGACCGGTTTTCCCGGTAATCCGTATTTGCA (site GTTCCAGCTTG)	0
GTTCAAGCATGGACCGGTTTTCCCGGTAATCCGTATTTGCA (site GTTCGAGCTTG)	0
GTTCAAGCATGGACCGGTTTTCCCGGTAATCCGTATTTGCA (site GTTCTAGCTTG)	0
GTTCGAGCATGGACCGGTTTTCCCGGTAATCCGTATTTGAT (site GTTCGAGCTAT)	1.75
GTTCGATCATGGACCGGTTTTCCCGGTAATCCGTATTTGCA (site GTTCGAACTTG)	0
GTTCGATCATGGACCGGTTTTCCCGGTAATCCGTATTTGCA (site GTTCGACCTTG)	0
GTTCGATCATGGACCGGTTTTCCCGGTAATCCGTATTTGCA (site GTTCGAGCTTG)	0.00436
